From US20120190743A1, “COMPOUNDS FOR TREATING DISORDERS OR DISEASES ASSOCIATED WITH NEUROKININ 2 RECEPTOR ACTIVITY” (UNITED PARAGON ASSOCIATES INC., priority 2009, published 2012)

Key:
human NK2 receptor [1] = target: T1, human NK2 receptor (Homo sapiens, UniProt P21452); experiment: Cellular/functional Ca2+ flux antagonist assay, CHO-K1 cells expressing recombinant human NK2 receptor; assay type: cell-based; details: 3×10^−7 M to 1×10^−4 M, agonist [bAla]-NKA (4-10) 0.3 nM, FIG. 12
T1 construct: expressed in transfected cells; host or cells: Chinese Hamster Ovary (CHO) cells
T1 sequence (P21452 1-398): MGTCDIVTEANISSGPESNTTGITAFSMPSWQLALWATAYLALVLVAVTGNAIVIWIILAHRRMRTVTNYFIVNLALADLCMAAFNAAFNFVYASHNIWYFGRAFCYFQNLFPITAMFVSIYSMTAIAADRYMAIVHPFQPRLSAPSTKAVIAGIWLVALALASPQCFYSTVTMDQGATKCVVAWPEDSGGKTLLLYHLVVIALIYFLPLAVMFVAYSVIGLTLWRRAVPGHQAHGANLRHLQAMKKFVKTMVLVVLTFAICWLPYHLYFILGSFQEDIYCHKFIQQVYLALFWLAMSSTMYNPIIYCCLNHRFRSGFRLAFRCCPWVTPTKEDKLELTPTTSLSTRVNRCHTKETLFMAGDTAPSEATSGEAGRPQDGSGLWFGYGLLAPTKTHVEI
Description: 6-methyl-myristic acid 2,3-dihydroxypropyl ester was synthesized as described above, and myristic acid 2,3-dihydroxypropyl ester was obtained. They were each prepared as solutions by addition of dimethyl sulfoxide (DMSO) to a concentration of 10 mM. These compounds were then used in cellular/functional calcium flux agonist and antagonist assays to determine the effect the compounds have on human NK2 receptor activity as measured by changes intracellular calcium measurements. These assays were carried out based on the method of Gerard et al.
The NK2 receptor antagonist assay was performed essentially as follows. CHO-K1 cells stably expressing recombinant human NK2 receptor were plated on mixed extracellular matrix overnight in complete media. One hour before the assay, the media was replaced with Hank's Buffered Salt Solution (HBSS) containing 0.1% bovine serum albumin. The cells were then loaded with dye that measures intracellular calcium and baseline measurements of intracellular calcium were taken. […] Fluorescence at 485 nm excitation/515 nm emission was measured every 2 seconds for at least two minutes. The peak height of fluorescence in each of the wells receiving controls, compound 2 or compound 3 was recorded and compared to the peak height of fluorescence in the wells receiving only the agonist. […]

human NK2 receptor [2] = target: T1, human NK2 receptor; experiment: [125I]neurokinin A radioligand binding assay, CHO cells expressing recombinant human NK2 receptor; details: various concentrations
Description: The contents of Formulation A capsules were dissolved using various solvents and extracted using four different processes, as described in detail below. […] These isolates were called: Sample #19 Top Isolate, Sample #19 Bottom Isolate, Sample #20 Top Isolate, Sample #20 Bottom Isolate, Fraction X Isolate and Sample #2 Isolate. These isolates were then each tested in the radioligand binding assay.

| SMILES | antagonist activity in functional NK2 receptor antagonist assay (in words) (human NK2 receptor [1]) | effect on neurokinin A binding to the NK2 receptor (in words) (human NK2 receptor [2]) |
| --- | --- | --- |
| CCCCCCCCC(C)CCCCC(=O)OCC(O)CO (stereo not shown) [6-methyl-myristic acid 2,3-dihydroxypropyl ester] | displayed antagonist activity | inhibited the ability of neurokinin A to bind the NK2 receptor in a concentration-dependent manner |
| CCCCCCCCCCCCCC(=O)OCC(O)CO (stereo not shown) [myristic acid 2,3-dihydroxypropyl ester] | displayed antagonist activity | inhibited the ability of neurokinin A to bind the NK2 receptor |
